What was measured:
[1] = test system: btrRCA5 to ATA5 capture oligonucleotide; assay: Accumulation and electronic hybridization in test buffers; settings: for hybridization efficiency: [(specific hybridization)/(transported)] × 100; for transported: fluorescent signal at completion of electronic targeting; for transported / specific hybridization: value +/− SEM, 50 mM buffer
Protocol: Microelectronic Chips, Permeation Layer and Instrumentation—These have been described previously with the following exception. The permeation layer employed herein has an underlayer of agarose beneath the top streptavidin-containing agarose layer (approximately one micron in total thickness). To make the underlayer, […] glyoxal agarose (2%) was spun on at 2000 rpms for 20 sec prior to the application of the streptavidin-agarose layer. In brief, the 5580 series APEX chip used for these experiments consists of a 5×5 array of […] circular microelectrodes with […] microelectrodes at each corner of the array. Chips were mounted on a micromanipulator stage and the microelectrodes activated by a power supply and appropriately controlled relay switches. Fluorescently labeled oligonucleotides on the chip were visualized using oblique illumination with two 594 nm HeNe lasers and the images were quantified using either NIH Image or IPLab Spectrum software packages.
Accumulation and Hybridization—Two biotinylated capture oligonucleotides, ATA5 and ATA4 were electronically transported and localized at adjacent microelectrodes. The solution was removed and the chip washed 3-4× in test buffer. Buffers employed in these studies are listed in Table 3 and were utilized at the listed pH values and concentrations presented.
The L-isomers of amino acids were used, unless otherwise noted. The chip was equilibrated in test buffer for 5-10 min. Then fresh buffer containing 10 nM BODIPY-Texas Red labeled RCA5 (btrRCA5), an oligonucleotide complementary to ATA5 but not ATA4 (RS paper) was applied.
The […] microelectrodes were employed as cathodes and one microelectrode within the array used as the corresponding anode. Accumulation was assessed by sourcing a 500 nA constant current to individual microelectrodes for 30 sec and monitoring the accumulation of fluorescence at the positively-biased (anode) site in the microelectrode array. Signal arising from non-fluorescent sources (ie. thermal noise, etc.) was subtracted. Experiments examining the effect of different currents upon signal accumulation were conducted in a similar fashion except that the applied current varied from 100 nA to 1 mA. […] For the comparison between conductivities of various buffers, the data is presented as fold increase over initial fluorescence to account for chip-to-chip variation as well as laser illumination variations in signal levels. For other experiments, the data is presented as attomol product versus time, after converting^2 the observed fluorescence intensity to moles of labeled oligonucleotide.
Following accumulation at one microelectrode location, the buffer was removed and fresh buffer containing btrRCA5 applied. An adjacent microelectrode was then sourced in a similar fashion. Upon completion, the buffer was removed and the chip washed 5-7× with test buffer without btrRCA5. The pair of previously targeted microelectrodes were then illuminated and the fluorescence present at each site quantified. Control experiments utilized a bodipy-Texas Red labeled oligonucleotide complementary to ATA4 to verify the integrity and concentration of the ATA4 capture oligonucleotide. Percent hybridization efficiency was calculated as follows: (complementary oligonucleotide signal−noncomplementary signal)/(signal present immediately prior to the end of the applied current)×100.

[2] = Buffer conductivity and pH measurements; assay type: physicochemical; design: conductivity: unit not given here; settings: 50 mM; for conductivity: RT; for pH: in water at room temperature
Protocol: Buffer Conductivity and pH Measurements—The conductivities of test buffer solutions utilized for transport and hybridization were measured at RT using an Accumet 1.0 cm^−1 glass conductivity cell connected to an Accumet Model 50 pH/Ion/Conductivity meter (Fisher Scientific). Buffer pH values were obtained using an Accu-pHast variable temperature combination electrode and the same model meter.

[3] = Table 3; cited from earlier work
[4] = test system: btr-RCA5 fluorescent DNA probe; assay: Fluorescent DNA checkerboard addressing; settings: bias reversed every 6 seconds, 80 micron microlocations
[5] = Conductivity measurements of transport buffers; assay type: physicochemical; settings: conductivity
[6] = test system: Reporter DNA to DNA1 or PNA1 capture; assay: Hybridization of phosphodiester-linked oligonucleotides versus PNA analogues; settings: 50 mM buffer

Row | SMILES | conductivity [2] | pH [2] | pl [3] | Average/Std. Deviation [5] | Measurement 1 [5] | Measurement 2 [5] | Measurement 3 [5] | further results
1 | Cn1cncc1C[C@H](N)C(=O)O [1(π)-methylhistidine] | 117 +/− 2.8 | 7.59 | 7.54 | – | – | – | – | hybridization efficiency [1]: 21.3; transported [1]: 141 +/− 20; specific hybridization [1]: 30.0 +/− 5.0 attomol
2 | Cn1cnc(C[C@H](N)C(=O)O)c1 [3(τ)-methylhistidine] | 39.4 +/− 0.4 | 7.44 | 7.52 | – | – | – | – | hybridization efficiency [1]: 20.8; transported [1]: 259 +/− 48; specific hybridization [1]: 54.0 +/− 14.8 attomol
3 | O=C([O-])CC(O)(CC(=O)[O-])C(=O)[O-].[Na+].[Na+].[Na+] [3.3 mM NaCitrate, sodium citrate] | – | – | – | 986 +/− 38.1 μS/cm | 964 μS/cm | 1.03 mS/cm | 964 μS/cm | checkerboard addressing and concentration of fluorescent DNA probe [4]: Rapid (6 second) checkerboard addressing and concentration of the btr-RCA5 fluorescent DNA probe was demonstrated
4 | O=C([O-])C(=O)[O-].[Na+].[Na+] [5 mM NaOxalate] | – | – | – | 1.06 +/− 0.055 mS/cm | 1.02 mS/cm | 1.03 mS/cm | 1.12 mS/cm | –
5 | O=C([O-])CCC(=O)[O-].[Na+].[Na+] [5 mM NaSuccinate, sodium succinate] | – | – | – | – | – | – | – | checkerboard addressing and concentration of fluorescent DNA probe [4]: Rapid (6 second) checkerboard addressing and concentration of the btr-RCA5 fluorescent DNA probe was demonstrated
6 | [Cl-].[Cl-].[Mg+2] [10 mM MgCl2, MgCl2] | – | – | – | 2.03 +/− 0.09 mS/cm | 1.95 mS/cm | 2.02 mS/cm | 2.13 mS/cm | Average/Std. Deviation ([5]; listed as 0.1 mM MgCl2): 17.3 +/− 0.87 μS/cm; Measurement 1 ([5]; listed as 0.1 mM MgCl2): 16.9 μS/cm; Measurement 2 ([5]; listed as 0.1 mM MgCl2): 16.7 μS/cm; Measurement 3 ([5]; listed as 0.1 mM MgCl2): 18.3 μS/cm; Average/Std. Deviation ([5]; listed as 1 mM MgCl2): 186 +/− 18.8 μS/cm; Measurement 1 ([5]; listed as 1 mM MgCl2): 174 μS/cm; Measurement 2 ([5]; listed as 1 mM MgCl2): 208 μS/cm; Measurement 3 ([5]; listed as 1 mM MgCl2): 177 μS/cm
7 | CC(=O)[O-].[Na+] [10 mM NaAcetate] | – | – | – | 934 +/− 43.5 μS/cm | 901 μS/cm | 917 μS/cm | 983 μS/cm | –
8 | [Cl-].[Na+] [10 mM NaCl, NaCl] | – | – | – | 1.12 +/− 0.057 mS/cm | 1.07 mS/cm | 1.10 mS/cm | 1.18 mS/cm | Average/Std. Deviation ([5]; listed as 0.1 mM NaCl): 9.43 +/− 0.93 μS/cm; Measurement 1 ([5]; listed as 0.1 mM NaCl): 8.80 μS/cm; Measurement 2 ([5]; listed as 0.1 mM NaCl): 8.98 μS/cm; Measurement 3 ([5]; listed as 0.1 mM NaCl): 10.5 μS/cm; Average/Std. Deviation ([5]; listed as 1 mM NaCl): 112.7 +/− 2.08 μS/cm; Measurement 1 ([5]; listed as 1 mM NaCl): 112 μS/cm; Measurement 2 ([5]; listed as 1 mM NaCl): 115 μS/cm; Measurement 3 ([5]; listed as 1 mM NaCl): 111 μS/cm
9 | NC(CO)(CO)CO [50 mM TRIS, TRIS] | – | – | – | 3.35 +/− 0.19 mS/cm | 3.50 mS/cm | 3.14 mS/cm | 3.40 mS/cm | Average/Std. Deviation ([5]; listed as 10 mM TRIS): 572 +/− 10.5 μS/cm; Measurement 1 ([5]; listed as 10 mM TRIS): 572 μS/cm; Measurement 2 ([5]; listed as 10 mM TRIS): 562 μS/cm; Measurement 3 ([5]; listed as 10 mM TRIS): 583 μS/cm
10 | N[C@H](Cc1c[nH]cn1)C(=O)O [D-histidine] | 57.1 +/− 0.3 | 7.70 | 7.47 | – | – | – | – | hybridization efficiency [1]: 24.3; transported [1]: 490 +/− 50; specific hybridization [1]: 119 +/− 11.8 attomol
11 | NCCCC(=O)O [GABA, g-amino-butyric acid] | 5.6 +/− 0.6 | 6.76 | 7.30 | – | – | – | – | support of sequence specific electronic hybridization ([1]; in words): neither GABA, b-alanine, nor glycine was capable of supporting sequence specific hybridization; DNA:DNA hybridization ([6]; 200 nA): no hybridization was observed; PNA:DNA hybridization ([6]; 200 nA): Hybridization in GABA was seen; hybridization with either PNA:DNA or DNA:DNA duplexes ([6]; 500 nA): lack of hybridization
